From article PMC10247784, “Physiological activation of human and mouse bitter taste receptors by bile acids” (Communications Biology, 2023)
Values joined by “and” are separate entries in the source; they are usually repeats but may differ in a detail not shown here. Equal entries are not always repeated.

Biological target: T1, human TAS2R4 (Homo sapiens, UniProt Q9NYW5)
T1 construct: expressed in transfected cells; host or cells: HEK293T-Gα16gust44
T1 sequence (Q9NYW5 1-299): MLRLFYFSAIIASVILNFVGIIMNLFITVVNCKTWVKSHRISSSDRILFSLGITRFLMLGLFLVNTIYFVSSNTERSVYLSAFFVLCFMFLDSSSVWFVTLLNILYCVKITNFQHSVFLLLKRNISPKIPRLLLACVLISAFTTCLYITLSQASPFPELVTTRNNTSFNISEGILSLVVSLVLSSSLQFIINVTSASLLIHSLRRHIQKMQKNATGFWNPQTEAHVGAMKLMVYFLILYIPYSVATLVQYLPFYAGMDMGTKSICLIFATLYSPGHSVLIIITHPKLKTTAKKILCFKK
Test: Calcium imaging assay (FLIPR), HEK293T-Gα16gust44 cells transfected with human TAS2R4
Type: cell-based
Method: This set of bile acids was chosen because of their commercial availability in high purities, their diversity within the class of bile acids and their previous detection and quantitation in human blood. Stock solutions were prepared in DMSO.
As basal growth medium for the HEK293T-Gα16gust44 cell line[17],[59] served Dulbecco’s modified eagle medium (DMEM) (Thermo Fisher Scientific, Darmstadt, Germany) supplemented with 10 % fetal bovine serum (Sigma-Aldrich, Steinheim, Germany), 2 mM L-glutamine (Sigma-Aldrich, Steinheim, Germany), 100 units/ml penicillin (Sigma Aldrich, Steinheim, Germany) and 100 µg/ml streptomycin (Sigma Aldrich, Steinheim, Germany). Growth conditions were 37 °C, 5 % CO2 and saturated air-humidity[60].
HEK293T-Gα16gust44 cells were seeded on poly-D-lysine (10 µg/ml) coated 96-well plates to reach a confluence of 40-60 % the next day. For transient transfection 150 ng of plasmid DNA containing the receptor of interest and 0.3 µl lipofectamine 2000 (Thermo Fisher Scientific, Darmstadt, Germany) per well were used and transfection took place according to the manual of lipofectamine 2000. […] The empty vector DNA (mock) was transfected as negative control[14],[41].
Cells were loaded using the calcium-sensitive fluorescent dye Fluo-4-AM (Abcam, Cambridge, Great Britain) in the presence of 2.5 mM probenecid (Sigma-Aldrich, Steinheim, Germany) the day after transfection[13],[41]. 1 h after loading, cells were washed with C1 buffer using a BioTek Cell Washer, incubated in the dark for half an hour and washed again. For automated agonist application and measurement of fluorescence changes, a FLIPR^TETRA device (Molecular Devices, San José, United States) was used. Viability of cells was tested by application of 100 nM Somatostatin 14 (Bachem, Bubendorf, Switzerland)[42].
Measured data were negative control corrected by subtracting the signal of the mock-transfected cells and exported to Microsoft Excel using the FLIPR software ScreenWorks 4.2. In Microsoft Excel software, standardization of maximum fluorescence intensities to the basal fluorescence and normalization to the buffer-only control was done to calculate the relative fluorescence changes (ΔF/F).
Initial screening experiments performed in duplicate wells were confirmed by at least one replication and representative traces were selected for display. All dose-response relationships were determined by three independent experiments (biological replicates) performed in duplicates (technical replicates). Threshold concentrations, defined as lowest substance concentrations leading to statistically significant elevated fluorescence changes in receptor-transfected cells compared with empty vector-transfected cells, were determined using SigmaPlot with Student’s t-test to evaluate statistical significance (p < 0.01).

- Efficacy = maximal amplitude (ΔF/F) (TAS2R4, bile acids, mean): 0.1626
- Efficacy (maximal amplitude ΔF/F), individual data points (TAS2R4, bile acids, single replicates, listed as GCA): 0.1367 and 0.1786 and 0.1725
- Δ F/F (TAS2R4, conc. 0,01 mM): 0.01565
- Δ F/F (TAS2R4, conc. 0,1 mM): 0.106
- Δ F/F (TAS2R4, conc. 0,03 mM): 0.03923
- Δ F/F (TAS2R4, conc. 0,3 mM): 0.1626
- Δ F/F (TAS2R4, conc. 0,001 mM): 0.006443
- Δ F/F (TAS2R4, conc. 0,003 mM): 0.006613
- RLU, fluorescence trace (Time (s) 0): 0 RLU
- RLU, fluorescence trace (Time (s) 2): 4.14 RLU
- RLU, fluorescence trace (Time (s) 4): -20.6032 RLU
- RLU, fluorescence trace (Time (s) 6): -25.8877 RLU
- RLU, fluorescence trace (Time (s) 8): -29.799 RLU
- RLU, fluorescence trace (Time (s) 12): -12.9106 RLU
- RLU, fluorescence trace (Time (s) 14): -6.673 RLU
- RLU, fluorescence trace (Time (s) 16): -18.2287 RLU
- RLU, fluorescence trace (Time (s) 18): -27.0676 RLU
- RLU, fluorescence trace (Time (s) 18.766 (TCA, TLCA: 18.782)): -34.2066 RLU
- RLU, fluorescence trace (Time (s) 20.781 (TCA, TLCA: 20.782)): -42.9373 RLU
- RLU, fluorescence trace (Time (s) 22.781 (TCA, TLCA: 22.782)): 15.1075 RLU
- RLU, fluorescence trace (Time (s) 24.781 (TCA, TLCA: 24.782)): 91.6518 RLU
- RLU, fluorescence trace (Time (s) 26.781 (TCA, TLCA: 26.782)): 179.573 RLU
- RLU, fluorescence trace (Time (s) 28.781 (TCA, TLCA: 28.782)): 304.257 RLU
- RLU, fluorescence trace (Time (s) 30.781 (TCA, TLCA: 30.782)): 388.704 RLU
- RLU, fluorescence trace (Time (s) 32.781 (TCA, TLCA: 32.782)): 524.444 RLU
- RLU, fluorescence trace (Time (s) 34.781 (TCA, TLCA: 34.782)): 591.908 RLU
- RLU, fluorescence trace (Time (s) 36.781 (TCA, TLCA: 36.782)): 664.761 RLU
- RLU, fluorescence trace (Time (s) 38.781 (TCA, TLCA: 38.782)): 747.083 RLU
- RLU, fluorescence trace (Time (s) 40.781 (TCA, TLCA: 40.782)): 780.753 RLU
- RLU, fluorescence trace (Time (s) 42.781 (TCA, TLCA: 42.782)): 820.227 RLU
- RLU, fluorescence trace (Time (s) 44.781 (TCA, TLCA: 44.782)): 854.725 RLU
- RLU, fluorescence trace (Time (s) 46.781 (TCA, TLCA: 46.782)): 885.437 RLU
- RLU, fluorescence trace (Time (s) 48.781 (TCA, TLCA: 48.782)): 869.015 RLU
- RLU, fluorescence trace (Time (s) 50.781 (TCA, TLCA: 50.782)): 904.393 RLU
- RLU, fluorescence trace (Time (s) 52.781 (TCA, TLCA: 52.782)): 904.624 RLU
- RLU, fluorescence trace (Time (s) 54.781 (TCA, TLCA: 54.782)): 934.879 RLU
- RLU, fluorescence trace (Time (s) 56.781 (TCA, TLCA: 56.782)): 910.42 RLU
- RLU, fluorescence trace (Time (s) 58.781 (TCA, TLCA: 58.782)): 920.415 RLU
- RLU, fluorescence trace (Time (s) 60.781 (TCA, TLCA: 60.782)): 939.945 RLU
- RLU, fluorescence trace (Time (s) 62.781 (TCA, TLCA: 62.782)): 894.354 RLU
- RLU, fluorescence trace (Time (s) 64.781 (TCA, TLCA: 64.782)): 892.209 RLU
- RLU, fluorescence trace (Time (s) 66.781 (TCA, TLCA: 66.782)): 883.058 RLU
- RLU, fluorescence trace (Time (s) 68.781 (TCA, TLCA: 68.782)): 897.442 RLU
- RLU, fluorescence trace (Time (s) 70.781 (TCA, TLCA: 70.782)): 864.365 RLU
- RLU, fluorescence trace (Time (s) 72.781 (TCA, TLCA: 72.782)): 888.719 RLU
- RLU, fluorescence trace (Time (s) 74.781 (TCA, TLCA: 74.782)): 833.342 RLU
- RLU, fluorescence trace (Time (s) 76.781 (TCA, TLCA: 76.782)): 856.102 RLU
- RLU, fluorescence trace (Time (s) 78.781 (TCA, TLCA: 78.782)): 820.296 RLU
- RLU, fluorescence trace (Time (s) 80.781 (TCA, TLCA: 80.782)): 794.483 RLU
- RLU, fluorescence trace (Time (s) 82.781 (TCA, TLCA: 82.782)): 818.87 RLU
- RLU, fluorescence trace (Time (s) 84.781 (TCA, TLCA: 84.782)): 756.604 RLU
- RLU, fluorescence trace (Time (s) 86.781 (TCA, TLCA: 86.782)): 753.892 RLU
- RLU, fluorescence trace (Time (s) 88.781 (TCA, TLCA: 88.782)): 732.115 RLU
- RLU, fluorescence trace (Time (s) 90.781 (TCA, TLCA: 90.782)): 726.989 RLU
- RLU, fluorescence trace (Time (s) 92.781 (TCA, TLCA: 92.782)): 713.242 RLU
- RLU, fluorescence trace (Time (s) 94.781 (TCA, TLCA: 94.782)): 703.281 RLU
- RLU, fluorescence trace (Time (s) 96.781 (TCA, TLCA: 96.782)): 696.734 RLU
- RLU, fluorescence trace (Time (s) 98.781 (TCA, TLCA: 98.782)): 653.577 RLU
- RLU, fluorescence trace (Time (s) 100.781 (TCA, TLCA: 100.782)): 678.663 RLU
- RLU, fluorescence trace (Time (s) 102.781 (TCA, TLCA: 102.782)): 623.965 RLU
- RLU, fluorescence trace (Time (s) 104.781 (TCA, TLCA: 104.782)): 624.137 RLU
- RLU, fluorescence trace (Time (s) 106.781 (TCA, TLCA: 106.782)): 630.047 RLU
- RLU, fluorescence trace (Time (s) 108.781 (TCA, TLCA: 108.782)): 571.666 RLU
- RLU, fluorescence trace (Time (s) 110.781 (TCA, TLCA: 110.782)): 598.289 RLU
- RLU, fluorescence trace (Time (s) 112.781 (TCA, TLCA: 112.782)): 583.918 RLU
- RLU, fluorescence trace (Time (s) 114.781 (TCA, TLCA: 114.782)): 556.25 RLU
- RLU, fluorescence trace (Time (s) 116.781 (TCA, TLCA: 116.782)): 588.773 RLU
- RLU, fluorescence trace (Time (s) 118.781 (TCA, TLCA: 118.782)): 548.501 RLU
- RLU, fluorescence trace (Time (s) 120.781 (TCA, TLCA: 120.782)): 507.386 RLU
- RLU, fluorescence trace (Time (s) 122.781 (TCA, TLCA: 122.782)): 507.852 RLU
- RLU, fluorescence trace (Time (s) 124.781 (TCA, TLCA: 124.782)): 509.201 RLU
- RLU, fluorescence trace (Time (s) 126.781 (TCA, TLCA: 126.782)): 489.381 RLU
- RLU, fluorescence trace (Time (s) 128.781 (TCA, TLCA: 128.782)): 446.993 RLU
- RLU, fluorescence trace (Time (s) 130.781 (TCA, TLCA: 130.782)): 463.894 RLU
- RLU, fluorescence trace (Time (s) 132.781 (TCA, TLCA: 132.782)): 448.798 RLU
- RLU, fluorescence trace (Time (s) 134.781 (TCA, TLCA: 134.782)): 427.428 RLU
- RLU, fluorescence trace (Time (s) 136.781 (TCA, TLCA: 136.782)): 402.196 RLU
- RLU, fluorescence trace (Time (s) 137.547): 379.772 RLU
- RLU, fluorescence trace (Time (s) 143.547): 379.834 RLU
- RLU, fluorescence trace (Time (s) 149.547): 308.948 RLU
- RLU, fluorescence trace (Time (s) 155.547): 318.726 RLU
- RLU, fluorescence trace (Time (s) 161.547): 303.241 RLU
- RLU, fluorescence trace (Time (s) 167.547): 312.32 RLU
- RLU, fluorescence trace (Time (s) 173.547): 281.168 RLU
- RLU, fluorescence trace (Time (s) 179.547): 242.535 RLU
- RLU, fluorescence trace (Time (s) 185.547): 225.911 RLU
- RLU, fluorescence trace (Time (s) 191.547): 214.607 RLU
- RLU, fluorescence trace (Time (s) 197.547): 221.087 RLU
- RLU, fluorescence trace (Time (s) 203.547): 189.795 RLU
- RLU, fluorescence trace (Time (s) 209.547): 203.53 RLU
- RLU, fluorescence trace (Time (s) 215.547): 197.074 RLU
- RLU, fluorescence trace (Time (s) 221.547): 173.704 RLU
- RLU, fluorescence trace (Time (s) 227.547): 160.915 RLU
- RLU, fluorescence trace (Time (s) 233.547): 142.108 RLU
- RLU, fluorescence trace (Time (s) 239.547): 141.876 RLU
- RLU, fluorescence trace (Time (s) 245.547): 156.883 RLU
- RLU, fluorescence trace (Time (s) 293.547): 127.131 RLU
- RLU, fluorescence trace (Time (s) 299.547): 134.948 RLU
- RLU, fluorescence trace (Time (s) 305.547): 119.109 RLU
- RLU, fluorescence trace (Time (s) 311.547): 130.712 RLU
- RLU, fluorescence trace (Time (s) 317.547): 94.0562 RLU
- RLU, fluorescence trace (Time (s) 323.547): 123.872 RLU
- RLU, fluorescence trace (Time (s) 329.547): 117.665 RLU
- RLU, fluorescence trace (Time (s) 335.547): 137.018 RLU
- RLU, fluorescence trace (Time (s) 341.547): 127.876 RLU
- RLU, fluorescence trace (Time (s) 347.547): 133.973 RLU
- RLU, fluorescence trace (Time (s) 353.547): 116.889 RLU
- RLU, fluorescence trace (Time (s) 359.547): 102.962 RLU
- Activation threshold concentration TAS2R4 (lowest concentration with significantly increased fluorescence vs empty vector (p < 0.01)): 30 µM
SMILES: C[C@H](CCC(=O)NCC(=O)O)[C@H]1CC[C@H]2[C@@H]3[C@H](O)C[C@@H]4C[C@H](O)CC[C@]4(C)[C@H]3C[C@H](O)[C@]12C [Glycocholic Acid, glycocholic acid]
